Test results as given in patent publication US20230190760A1, “ADVANTAGEOUS THERAPIES FOR DISORDERS MEDIATED BY IKAROS OR AIOLOS” (C4 Therapeutics, Inc., priority 2020, published 2023).

Tests used:
RL = assay: Anti-proliferative activity, 96 hours; details: Homo sapiens
[1] = system: activated B-cell DLBCL lines; assay: Anti-cancer activity in ABC-DLBCL cell lines; type: cell-based; details: three of six responsive, read-out: mean IC50 amongst the responsive lines
[2] = system: IKZF1, IKZF3, IRF-1, IRF-4 and Caspase-3; assay: KI-JK ALCL tumor protein expression, western blot (Example 20); type: in vivo, mice; details: 100 μg/kg PO
Method: A second xenograft study was conducted in female NOD SCID mice bearing KI-JK ALCL tumors. […] Once tumors reached a mean tumor volume (MTV) of 450 mm^3 they were stratified into two groups.
For the vehicle control group, 2 mice were sacrificed, and tumors harvested 24 hours post a single dose. Mice in the Compound 1 group were sampled at 4- and 24-hours post dose a single dose, with two tumors collected per time point. Additional mice were dosed daily for 5 or 7 days with tumor collections 24 hours post last dose, with 2 mice sampled per time point. Tumors were then mechanically homogenized, and protein extracted using RIPA buffer (Sigma Aldrich). Protein concentration was quantified using a Pierce™ BCA Protein Assay Kit, samples were reduced, and equal protein amounts were then loaded onto a western blot gel for analysis. Tumors were analyzed for IKZF1 (Invitrogen, PA5-23728), IKZF3 (CST, 15103), IRF-1 (CST, 8478), IFR-4 (CST, 15106), and Caspase-3 (CST, 9662) expression. […] Data is expressed as percentage of each target in comparison to the target level measured in the vehicle control and normalized to GAPDH levels to control for protein loading. Error bars represent ±SEM values.

[3] = system: cutaneous T-cell lymphoma (CTCL) cell lines; assay: Anti-cancer activity in CTCL cell lines; type: cell-based; details: three of four cell lines tested were responsive, read-out: mean IC50 among the responsive lines
DL-40 ALCL tumors [4] = assay: DL-40 ALCL xenograft efficacy (Example 19); type: in vivo, mice
Method: A xenograft study was conducted in female NOD SCID mice bearing DL-40 ALCL tumors. […]

NCIH929 cells = assay: NCI-H929 viability assay (CellTiter-Glo)
Method: NCIH929 cell viability was determined based on quantification of ATP using CellTiter-Glo®2.0 luminescent Assay kit, which signals the presence of metabolically-active cells. Briefly, test compound was added to 384-well plates at a top concentration of 1 μM with 10 points, half log titration in duplicates. NCIH929 cells were seeded into the 384-well plates in RPMI medium containing 10% FBS and 0.05 mM 2-mercaptoethanol at a cell density of 750 cells per well. Cells treated in the absence of the test compound were the negative control and cells treated in the absence of CellTiter-Glo® 2.0 were the positive control. Cells treated with the test compounds were incubated at 37° C. with 5% CO2 for 96 hr. CellTiter-Glo reagent was then added to the cells and Luminescence was acquired on EnVision™ Multilabel Reader (PerkinElmer, Santa Clara, Calif., USA). % Viability was determined by normalizing the signal with positive and DMSO treated negative controls on the same microtiter plate. […] Curve fit and IC502 determination was performed by 4 parametric regression analysis.

[5] = molecular target: T1, Sal-like protein 4 (SALL4) (Homo sapiens, UniProt Q96SW2+Q9UJQ4); assay: SALL4 degradation in KELLY neuroblastoma cell line; type: cell-based; details: at 10 nM
T1 construct: endogenous in cells; host or cells: KELLY neuroblastoma cell line
Method: Specific studies were carried out to assess the ability of Compound 1 to degrade Sal-like protein 4 (SALL4), a protein implicated in the teratogenicity induced by the IMiD®s class of IKZF1/IKZF3 degraders.

DL-40 ALCL tumors [6] = assay: DL-40 ALCL xenograft efficacy (Example 18); type: in vivo, mice; details: PO daily for 21 days
Method: A xenograft study was conducted in female NOD SCID mice bearing DL-40 ALCL tumors.
(§1) Data are expressed as MTV±SEM.

IKZF1/3 [7] = assay: Ex vivo IKZF1/3 degradation in PBMC, cynomolgus monkey; type: cell-based; details: cynomolgus monkey cells
Method: (§2) IKZF1/3 are not degraded in mouse cells treated with thalidomide or its IMiD® analogs because of a single amino acid difference in mouse cereblon compared to human cereblon that causes steric hindrance and prevents recruitment of IKZF1/3. Ex vivo studies were performed in peripheral blood cells (PBMC) of mice, rats, dogs, and monkeys to identify relevant species for IND enabling-toxicity studies based on the degree of IKZF1 degradation by Compound 1. IKZF1 was not degraded in mouse or rat cells by Compound 1, thus, while rat could not be considered a pharmacologically relevant species for human risk assessment, it was chosen as the rodent species for toxicological studies because it is widely used in toxicity testing and a substantial historical toxicology database is available. […] Therefore, cynomolgus monkey was chosen for non-rodent toxicological studies.

[8] = system: anaplastic large cell lymphoma (ALCL) cell lines; assay: Anti-cancer activity in ALCL cell lines; type: cell-based; details: four out of six cell lines were responsive; read-out: mean IC50 among the responsive lines
[9] = system: multiple myeloma cell lines; assay: Anti-cancer activity in a panel of multiple myeloma cell lines; type: cell-based; details: eight of twelve were responsive, read-out: mean IC50 among responsive lines
IKZF1/3 [10] = assay: Ex vivo IKZF1/3 degradation in PBMC, dog; type: cell-based; details: dog cells
Method: as §2

IKZF3 = molecular target: T2, IKZF3 (Homo sapiens, UniProt Q96SW2+Q9UKT9); assay: NCI-H929 xenograft pharmacodynamic and pharmacokinetic study (Example 40); type: in vivo, mice
T2 construct: from tissue; host or cells: NCI-H929 MM xenograft tumours in female NOD SCID mice
Method: A xenograft study was conducted in female NOD SCID mice bearing NCI-H929 MM tumors. Female SCID mice were inoculated subcutaneously in the right flank with 10×10^6 tumors cells in 0.2 mL of PBS supplemented with matrigel (PBS:matrigel=1:1). Tumor volume was measured twice weekly in two dimensions using calipers, and volume was calculated using the formula: (w2×l)/2=mm^3, assuming 1 mg is equivalent to 1 mm^3 of tumor volume.
For the pharmacodynamic and pharmacokinetic portion of this study 3 mice were sacrificed per time point with tumors and plasma harvested, with mice in the vehicle control group being sacrificed 24 post single dose. […] Tumors were then mechanically homogenized, and protein extracted using RIPA buffer (Sigma Aldrich). Protein concentration was quantified using a Pierce™ BCA Protein Assay Kit, samples were reduced, and equal protein amounts were then loaded onto a western blot gel for analysis. […] The intensity of individual bands was measured for data analysis using Image Studio NIR software. Protein expression was quantitated in relation to the reference protein, GAPDH, to control for total protein concentration. […] Data is represented as percent of target present in the vehicle control and normalized for total protein. […]

[11] = system: MM1.S multiple myeloma tumors; assay: Disseminated MM1.S-Luc multiple myeloma model, bioluminescence; type: in vivo, mice; details: 300 μg/kg QD orally
Method: Compound 1 was administered at 300 μg/kg QD (every day) orally to female NOD SCID mice with disseminated MM1.S multiple myeloma tumors with a measurable MM1.S tumor burden on day 0 and dosed PO daily for 3 weeks. […] Data are expressed as mean BLI±SEM.
A xenograft study was conducted. Female SCID animals were irradiated with a 200 rads Co60 irradiator source and after 24 hours, animals were inoculated via tail vein injection with 1×107 MM1.S-Luc in 200 μL PBS. Tumor burden was measured twice weekly using imaging analysis. Mice were injected intraperitoneally with 15 mg/mL of D-luciferin and anesthetized with 1-2% isoflurane inhalation. 10 minutes post luciferin injection, mice were imaged using IVIS Lumina II (Perkin Elmer) and total bioluminescence signal (BLI, photons/s) was measured in a region of interest (ROI). BLI from ROI were quantified and used as an indicator of tumor burden. 29 days post tumor cell inoculation mice were randomized into two groups, with 3 mice per group and an average BLI of 17×10^6 photons. FIG. 6 are images of the mice administered Compound 1 compared to the mice administered vehicle. Images were taken on days 4, 7, 11, 14, and 18.

DL40 = assay: Anti-proliferative activity, 96 hours
Pfeiffer = assay: Anti-proliferative activity, 96 hours; details: Homo sapiens
H929 PomR tumors = assay: Pomalidomide resistant H929 PomR xenograft; type: in vivo, mice; details: 100 μg/kg/day PO
Description: as §1

T2 sequence (Q9UKT9 whole entry): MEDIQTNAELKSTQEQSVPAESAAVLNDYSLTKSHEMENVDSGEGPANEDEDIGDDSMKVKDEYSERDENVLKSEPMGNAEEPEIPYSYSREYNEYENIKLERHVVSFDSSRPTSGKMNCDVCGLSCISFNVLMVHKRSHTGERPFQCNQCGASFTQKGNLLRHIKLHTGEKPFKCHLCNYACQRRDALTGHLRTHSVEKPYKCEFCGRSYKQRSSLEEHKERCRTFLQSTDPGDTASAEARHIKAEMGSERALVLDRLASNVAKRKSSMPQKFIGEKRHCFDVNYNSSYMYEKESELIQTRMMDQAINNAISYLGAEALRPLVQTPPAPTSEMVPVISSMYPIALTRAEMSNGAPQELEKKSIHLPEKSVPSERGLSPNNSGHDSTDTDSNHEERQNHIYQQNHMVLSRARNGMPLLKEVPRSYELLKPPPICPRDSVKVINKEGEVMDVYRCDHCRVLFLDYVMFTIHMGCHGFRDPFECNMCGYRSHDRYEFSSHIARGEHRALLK
T2 sequence (Q96SW2 whole entry): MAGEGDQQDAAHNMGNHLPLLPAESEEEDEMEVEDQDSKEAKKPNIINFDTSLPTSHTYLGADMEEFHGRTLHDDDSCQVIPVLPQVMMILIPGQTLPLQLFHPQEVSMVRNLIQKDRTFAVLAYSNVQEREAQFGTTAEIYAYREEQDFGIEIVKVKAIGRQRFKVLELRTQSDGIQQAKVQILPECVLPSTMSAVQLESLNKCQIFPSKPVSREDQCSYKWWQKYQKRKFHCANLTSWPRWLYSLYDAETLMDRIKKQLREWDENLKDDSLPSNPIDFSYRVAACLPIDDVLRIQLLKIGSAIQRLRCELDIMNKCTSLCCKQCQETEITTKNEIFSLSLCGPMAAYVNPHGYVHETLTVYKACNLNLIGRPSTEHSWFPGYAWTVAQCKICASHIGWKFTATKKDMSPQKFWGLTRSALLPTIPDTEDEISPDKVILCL
T2 sequence (Q16531 2-1140 partner limits assumed): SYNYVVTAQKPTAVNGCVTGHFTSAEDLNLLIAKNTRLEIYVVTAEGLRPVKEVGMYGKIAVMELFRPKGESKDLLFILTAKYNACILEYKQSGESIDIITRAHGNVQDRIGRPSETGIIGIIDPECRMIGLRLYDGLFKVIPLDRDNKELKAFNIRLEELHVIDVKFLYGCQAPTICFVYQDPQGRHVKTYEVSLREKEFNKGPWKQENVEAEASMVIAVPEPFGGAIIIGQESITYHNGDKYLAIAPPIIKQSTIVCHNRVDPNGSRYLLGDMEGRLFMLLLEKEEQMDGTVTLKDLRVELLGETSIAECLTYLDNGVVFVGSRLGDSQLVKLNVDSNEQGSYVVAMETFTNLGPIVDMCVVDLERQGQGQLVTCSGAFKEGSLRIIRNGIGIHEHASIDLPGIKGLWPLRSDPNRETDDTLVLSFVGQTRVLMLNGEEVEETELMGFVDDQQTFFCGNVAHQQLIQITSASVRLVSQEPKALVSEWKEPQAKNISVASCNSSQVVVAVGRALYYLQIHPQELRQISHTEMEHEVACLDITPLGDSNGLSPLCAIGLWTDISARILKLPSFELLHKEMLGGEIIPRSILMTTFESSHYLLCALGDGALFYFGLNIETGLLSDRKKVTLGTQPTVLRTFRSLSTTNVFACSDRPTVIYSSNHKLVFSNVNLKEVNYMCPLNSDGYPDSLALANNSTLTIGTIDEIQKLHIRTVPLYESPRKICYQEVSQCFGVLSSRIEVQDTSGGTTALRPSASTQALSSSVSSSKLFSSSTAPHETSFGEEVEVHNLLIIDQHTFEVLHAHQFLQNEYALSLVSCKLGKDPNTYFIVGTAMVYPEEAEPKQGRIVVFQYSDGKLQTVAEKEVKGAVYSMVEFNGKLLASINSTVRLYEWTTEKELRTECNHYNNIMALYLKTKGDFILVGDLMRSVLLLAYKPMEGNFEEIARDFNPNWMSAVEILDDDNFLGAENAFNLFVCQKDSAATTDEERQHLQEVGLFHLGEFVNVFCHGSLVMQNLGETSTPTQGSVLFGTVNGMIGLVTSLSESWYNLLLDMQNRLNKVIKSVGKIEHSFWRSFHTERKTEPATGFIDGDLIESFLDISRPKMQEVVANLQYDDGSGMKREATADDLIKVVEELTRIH
T1 sequence (Q9UJQ4 whole entry): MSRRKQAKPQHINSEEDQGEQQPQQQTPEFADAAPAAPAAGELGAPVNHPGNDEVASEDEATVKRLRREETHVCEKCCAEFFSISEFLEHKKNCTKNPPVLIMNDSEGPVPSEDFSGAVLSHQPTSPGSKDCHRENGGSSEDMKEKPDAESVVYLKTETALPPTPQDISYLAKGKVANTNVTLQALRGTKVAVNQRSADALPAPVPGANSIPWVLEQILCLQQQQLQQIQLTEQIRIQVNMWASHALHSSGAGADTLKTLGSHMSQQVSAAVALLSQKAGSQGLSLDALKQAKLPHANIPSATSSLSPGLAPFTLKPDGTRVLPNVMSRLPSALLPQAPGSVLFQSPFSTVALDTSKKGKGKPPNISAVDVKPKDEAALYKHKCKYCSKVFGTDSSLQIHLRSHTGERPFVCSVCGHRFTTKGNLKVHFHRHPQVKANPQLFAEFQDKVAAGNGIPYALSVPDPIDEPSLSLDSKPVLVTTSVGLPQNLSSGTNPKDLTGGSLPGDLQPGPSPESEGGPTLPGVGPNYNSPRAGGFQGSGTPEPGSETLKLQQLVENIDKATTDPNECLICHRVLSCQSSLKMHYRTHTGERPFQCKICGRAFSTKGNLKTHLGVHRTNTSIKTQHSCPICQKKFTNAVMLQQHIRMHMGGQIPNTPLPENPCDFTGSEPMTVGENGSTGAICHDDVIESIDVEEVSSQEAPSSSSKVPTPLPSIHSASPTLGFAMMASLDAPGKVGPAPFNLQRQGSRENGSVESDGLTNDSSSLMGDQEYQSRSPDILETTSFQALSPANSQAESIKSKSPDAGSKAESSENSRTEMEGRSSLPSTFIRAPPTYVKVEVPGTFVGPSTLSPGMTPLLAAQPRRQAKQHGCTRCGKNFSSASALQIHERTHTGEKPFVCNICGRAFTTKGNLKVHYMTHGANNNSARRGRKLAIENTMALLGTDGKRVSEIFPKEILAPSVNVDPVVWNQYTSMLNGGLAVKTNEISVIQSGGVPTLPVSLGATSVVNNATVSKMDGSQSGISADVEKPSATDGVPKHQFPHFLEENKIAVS
T1 sequence (Q96SW2 whole entry): as the sequence (Q96SW2 whole entry) above
T1 sequence (Q16531 2-1140 partner limits assumed): as the sequence (Q16531 2-1140 partner limits assumed) above

O=C1CC[C@H](N2C(=O)c3cccc4c(Cc5ccc(CN6CCOCC6)cc5)ccc2c34)C(=O)N1 (single isomer, unassigned) [Compound 1]
IC50 (RL): 2.32 nM | IC50 [1]: 1.6 nM | concentration of caspase-3 and IRF-1 [2]: increased | percentage of IKZF1, IKZF3, and IRF-4 [2]: decreased | IC50 [3]: 30 nM | Statistical Significance Compared to Vehicle (DL-40 ALCL tumors [4]; 3 μg/kg PO daily): 0.0111 | Statistical Significance Compared to Vehicle (DL-40 ALCL tumors [4]; 10 μg/kg PO daily): 0.0006 | Statistical Significance Compared to Vehicle (DL-40 ALCL tumors [4]; 30 μg/kg PO daily): 0.0004 | Statistical Significance Compared to Vehicle (DL-40 ALCL tumors [4]; 100 μg/kg PO daily): 0.0004 | Statistical Significance Compared to Vehicle (DL-40 ALCL tumors [4]; 300 μg/kg PO daily): 0.0004 | tumor volume (DL-40 ALCL tumors [4]; 30, 100, and 300 μg/kg, 21 days): able to reduce tumor volume | Mean Emax (%) ± SD, H929 Viability (NCIH929 cells; 96 hours, % viability): 4.0 ± 0.5% | maximal growth inhibition (NCIH929 cells; previously untreated NCIH929): 96% | IC50 (NCIH929 cells; read-out: Mean IC50 (nM), H929 Viability, 96 hours): 0.071 nM | degradation of SALL4 [5]: more than 85% | tumor volume versus pomalidomide (DL-40 ALCL tumors [6]): more successful at decreasing tumor volume than pomalidomide | degrading IKZF1/3 (IKZF1/3 [7]): highly effective | IC50 [8]: 1.7 nM | IC50 [9]: 0.3 nM | effect on IKZF1/3 (IKZF1/3 [10]): no effect | time for the IKZF3 level to reach 50% of its pretreatment level (IKZF3; NCI-H929 tumor model, single dose): more than 48 hours | duration of plasma and tumor concentrations (IKZF3; dosed at a 10-fold lower dose than CC-92480): measurable plasma and tumor concentrations for longer than CC-92480 | total bioluminescence signal [11]: significantly less than the mice administered vehicle | IC50 (DL40): 0.91 nM | IC50 (Pfeiffer): 1.08 nM | tumors versus pomalidomide 3000 μg/kg/day (H929 PomR tumors): smaller
